In patent US20140088006A1, “Stem Cell Mobilization and Tissue Repair and Regeneration” (Wellstat Therapeutics Corporation, priority 2011, published 2014):
Where “and” joins values, the source holds several entries; their conditions need not be identical. Equal entries are not always repeated. No end group written: not given here.

Columns and labels:
spleen cells = assay: Flow cytometry analysis of stem cell phenotypes in spleens on day 7; type: in vivo, mice; conditions: 250 μg/kg
[1] = tested on: white blood cells in peripheral blood; assay: White blood cell count in peripheral blood after single subcutaneous injection; type: in vivo, C57Bl6 mice; conditions: for White Blood Cell counts: Cell Count: individual mice
Procedure: C57Bl6 male mice, from 8 weeks to 4 month of age, from Harlan were used. Mice received subcutaneous injections of saline, Compound X (50 μg/kg) or Compound X (250 μg/kg). After 1 and 4 hours, mice were anesthetized and blood was collected through the orbital sinus with heparinized capillary tubes. 20 μl of blood was removed from each tube for WBC counts;
In this experiment, C57Bl6 mice received subcutaneous injections of PBS, Compound X (250 μg/kg) or AMD3100 (5 mg/kg). After 1 hr blood was collected through the orbital sinus with heparinized capillary tubes. Blood from each group was pooled, counted and mononuclear cells were isolated by density gradient separation. Cells were washed, counted and plated at 100,000 per dish (5 dishes/group) for CFU-GEMM and CFU-GM colonies. CFU-GEMM colonies were scored on day 14, while CFU-GM colonies on day 7 after plating in MC3434 (Stem cell Technology).

[2] = tested on: streptozotocin-induced diabetic mice; assay: STZ diabetes model; type: in vivo, C57BL/6 female mice
Procedure: In order to look at the ability of Compound X mobilized stem cells to mediate tissue regeneration in vivo subcutaneous injections of 250 μg/kg of Compound X were compared with the ability of Compound X treated bone marrow cells to regenerate pancreas in a streptozoticin-induced diabetic model. Streptozotocin (STZ) is an antibiotic that preferentially kills the insulin secreting beta cells in pancreas. STZ-induced diabetes is a widely used model of pancreatic insufficiency.
Streptozotocin was dissolved and diluted into citric acid buffer (pH 4.5) immediately before injections. Drinking water and food were removed for 6 hours from 8-week old C57BL/6 female mice (Charles River) before mice were given a single intraperitoneal dose of 150 mg/kg STZ (Day −4). Blood for glucose determination was obtained from the tail vein four days post STZ. Blood glucose was measured by using an Elite glucometer (Bayer). Mice were considered diabetic if their blood glucose was >300 mg/dL. Mice showing >300 mg/dL blood glucose were randomized and divided into 5 groups of 10 mice (day 0). […]
After 96 hours of expansion, cells were harvested and processed for fluorescence activated cell sorting (FACS). […] Stained cells were excited with laser 2 (488 nm) and fluorescence emission was detected using the following optical filters, FL-3 (PerCP-Cy5.5) 695/BP40, FL-2 (phycoerythrin) 585/BP42 and FL-1 (FITC) 530/BP30. […]

In the case of “FPHFDLSHGSAQV [Compound X, tridecapeptide that acts on stem cells]”, the “accumulation of cells with stem cell phenotypes in the spleens” value (spleen cells) is reported as “No accumulation”, the “CD34+ Flk-1+, Mean” value (spleen cells; spleen) is reported as 0.03 and the “CD34+ Flk-1−, Mean” value (spleen cells; spleen) is reported as 0.05. The “CD34− Flk-1+, Mean” value (spleen cells; spleen) was 0.38, the “CD150+ CD48−, Mean” value (spleen cells; spleen) was 0.17 and the “CD244+ CD48+, Mean” value (spleen cells; spleen) was 0.78. For the same sequence, the “Lin− Kit+ Sca-1+, Mean” value (spleen cells; spleen) was 0.07, the “Lin− Kit+ Sca-1−, Mean” value (spleen cells; spleen) was 0.50 and the “Lin− Kit^low Sca-1+, Mean” value (spleen cells; spleen) was 0.17. For the same sequence, the “White blood cell count: Cell Count” value ([1]; s.c. 250 μg/kg, 1 hr, pooled blood) was 7.2e+06 mL⁻¹, the “White Blood Cell counts: Cell Count” value ([1]; single s.c. 50 μg/kg, 1 hour) was 1.41e+07 mL⁻¹ and 7.8e+06 mL⁻¹ and 9.6e+06 mL⁻¹ and the “White Blood Cell counts: Cell Count” value ([1]; single s.c. 50 μg/kg, 4 hours) was 2.22e+07 mL⁻¹ and 6.9e+06 mL⁻¹ and 1e+07 mL⁻¹. For the same sequence, the “White Blood Cell counts: Cell Count” value ([1]; single s.c. 250 μg/kg, 1 hour) was 9.6e+06 mL⁻¹ and 9.2e+06 mL⁻¹ and 1.79e+07 mL⁻¹, the “White Blood Cell counts: Cell Count” value ([1]; single s.c. 250 μg/kg, 4 hours) was 1.67e+07 mL⁻¹ and 1.46e+07 mL⁻¹ and 1.03e+07 mL⁻¹ and the “egress of cells from bone marrow into peripheral blood (white blood cell count)” value ([1]; single s.c. 50 or 250 μg/kg) was “did not cause massive egress of cells”. For the same sequence, the “Survival of STZ treated mice” value ([2]; s.c. 250 μg/kg for 5 consecutive days for 3 weeks, STZ 150 mg/kg) was 100% and the “mice with substantial weight loss” value ([2]; s.c. 250 μg/kg stem cell mobilizing doses) was “No mice”.
